Test results taken from patent publication US8501936B2 (priority 2009, dated 2013).
Where two headings read alike, the source gives them in different places.

Columns and labels:
[1] = target: T1, human JAK2 (Homo sapiens (Human), UniProt O60674); experiment: biochemical
[2] = target: T2, human FAK (Homo sapiens (Human), UniProt Q05397); experiment: biochemical
Description: (§1) The ability of compounds to inhibit the kinase activity of baculovirus-expressed human FAK and PYK2 was measured using the 96-well plate TRF assay system described above for JAK2. […] For the FAK kinase assay, the reaction mixture (total volume=100 μL/well) contained 20 mM HEPES (pH 7.2), 10 μM ATP, 5 mM MgCl2, 0.5 mM DTT, 0.1% BSA, and test compound (diluted in DMSO; 2.5% DMSO final in assay). For PYK2, the 100 μL assay solution consisted of 20 mM HEPES (pH 7.2), 3 μM ATP, 5 mM MnCl2, 0.1% BSA, and test compound (diluted in DMSO; 2.5% DMSO final in assay). Enzyme (10 ng/mL FAK or 25 ng/mL PYK2) was added and the reaction was allowed to proceed at room temperature for 30 min. Detection of the phosphorylated product was performed by adding 100 μL/well of Eu—N1 labeled PY100 antibody diluted 1:75000 in 0.25% BSA in TBS-T (PerkinElmer #AD0041). […] Inhibition data were analyzed using ActivityBase and IC50 curves generated using XLFit.

[3] = target: T2, human FAK; settings: read-out: FAK IC50
Description: as §1

[4] = target: T1, human JAK2; settings: read-out: JAK2 IC50

T2 sequence (Q05397 whole entry): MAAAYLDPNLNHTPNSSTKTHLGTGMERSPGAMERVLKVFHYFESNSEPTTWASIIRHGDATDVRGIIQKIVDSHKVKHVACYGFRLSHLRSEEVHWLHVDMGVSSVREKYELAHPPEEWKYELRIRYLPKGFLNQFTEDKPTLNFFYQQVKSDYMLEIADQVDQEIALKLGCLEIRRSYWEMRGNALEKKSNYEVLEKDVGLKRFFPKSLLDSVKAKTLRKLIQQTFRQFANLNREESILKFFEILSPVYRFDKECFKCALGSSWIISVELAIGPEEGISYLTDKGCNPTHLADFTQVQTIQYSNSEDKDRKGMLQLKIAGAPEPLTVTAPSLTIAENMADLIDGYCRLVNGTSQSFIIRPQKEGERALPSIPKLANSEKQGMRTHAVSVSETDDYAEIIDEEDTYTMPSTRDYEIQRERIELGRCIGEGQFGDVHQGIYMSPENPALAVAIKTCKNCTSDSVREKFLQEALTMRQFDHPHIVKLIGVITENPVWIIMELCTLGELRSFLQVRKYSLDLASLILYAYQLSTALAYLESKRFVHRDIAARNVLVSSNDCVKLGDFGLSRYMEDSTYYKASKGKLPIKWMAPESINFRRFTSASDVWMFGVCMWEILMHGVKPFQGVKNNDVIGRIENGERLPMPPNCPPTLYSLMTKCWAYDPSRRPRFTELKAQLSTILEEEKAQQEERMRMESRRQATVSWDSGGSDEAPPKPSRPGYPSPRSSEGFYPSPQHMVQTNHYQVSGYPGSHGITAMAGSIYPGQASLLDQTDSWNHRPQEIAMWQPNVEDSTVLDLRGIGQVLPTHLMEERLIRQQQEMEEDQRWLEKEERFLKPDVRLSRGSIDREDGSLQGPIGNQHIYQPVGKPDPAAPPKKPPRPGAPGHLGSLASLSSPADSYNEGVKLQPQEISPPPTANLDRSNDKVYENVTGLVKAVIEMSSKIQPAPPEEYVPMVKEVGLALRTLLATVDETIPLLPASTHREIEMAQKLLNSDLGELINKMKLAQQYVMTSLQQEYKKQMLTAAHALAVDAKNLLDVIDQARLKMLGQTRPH
T1 sequence (O60674 815-1132): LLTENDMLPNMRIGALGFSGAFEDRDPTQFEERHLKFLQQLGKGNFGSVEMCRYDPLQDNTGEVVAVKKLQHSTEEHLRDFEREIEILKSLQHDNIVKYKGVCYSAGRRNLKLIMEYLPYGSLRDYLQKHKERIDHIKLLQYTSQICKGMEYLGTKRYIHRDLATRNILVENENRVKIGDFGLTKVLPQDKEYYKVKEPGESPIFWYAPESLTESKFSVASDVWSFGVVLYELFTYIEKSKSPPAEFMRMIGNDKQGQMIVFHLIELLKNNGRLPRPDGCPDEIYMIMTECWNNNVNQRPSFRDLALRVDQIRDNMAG

Row | Compound | IC50 [1] [nM] | IC50 [2] [nM] | IC50 [3] [nM] | IC50 [4] [nM]
1 | CS(=O)(=O)c1ccc(-c2cccn3nc(Nc4cccc([C@@H]5CCNC[C@@H]5O)c4)nc23)cc1 (racemic) [Example 188, (±)-(cis)-4-{3-[8-(4-Methanesulfonyl-phenyl)-[1,2,4]triazolo[1,5-a]pyridin-2-ylamino]-phenyl}-piperidin-3-ol] | 1.43 | 1940 | – | –
2 | CS(=O)(=O)c1ccc(-c2cccn3nc(Nc4cccc(N5CCC(N6CCOCC6)CC5)c4)nc23)cc1 [Example 57, [8-(4-Methanesulfonyl-phenyl)-[1,2,4]triazolo[1,5-a]pyridin-2-yl]-[3-(4-morpholin-4-yl-piperidin-1-yl)-phenyl]-amine] | 0.5 | – | 1180 | –
3 | COc1cccc(CNc2cccn3nc(Nc4cccnc4)nc23)c1 [Example 398, N(8)-(3-Methoxy-benzyl)-N(2)-pyridin-3-yl-[1,2,4]triazolo[1,5-a]pyridine-2,8-diamine] | – | – | 10000 | 816
4 | COc1ccccc1CNc1cccn2nc(Nc3cccnc3)nc12 [Example 400, N(8)-(2-Methoxy-benzyl)-N(2)-pyridin-3-yl-[1,2,4]triazolo[1,5-a]pyridine-2,8-diamine] | – | – | 3120 | 32.3
5 | COc1ccc(Nc2nc3c(NCc4ccccc4OC)cccn3n2)cn1 [Example 402, N(8)-(2-Methoxy-benzyl)-N(2)-(6-methoxy-pyridin-3-yl)-[1,2,4]triazolo[1,5-a]pyridine-2,8-diamine] | – | – | 3000 | 42.7
6 | COc1ccccc1CNc1cccn2nc(Nc3ccc(C)nc3)nc12 [Example 403, N(8)-(2-Methoxy-benzyl)-N(2)-(6-methyl-pyridin-3-yl)-[1,2,4]triazolo[1,5-a]pyridine-2,8-diamine] | – | – | 1880 | 27.6
7 | COc1ccccc1CNc1cccn2nc(Nc3ccnc(C)c3)nc12 [Example 404, N(8)-(2-Methoxy-benzyl)-N(2)-(2-methyl-pyridin-4-yl)-[1,2,4]triazolo[1,5-a]pyridine-2,8-diamine] | – | – | 2580 | 24.7
8 | COc1cccc(CNc2cccn3nc(Nc4ccc(C)nc4)nc23)c1 [Example 405, N(8)-(3-Methoxy-benzyl)-N(2)-(6-methyl-pyridin-3-yl)-[1,2,4]triazolo[1,5-a]pyridine-2,8-diamine] | – | – | 10000 | 1020
9 | CS(=O)(=O)c1ccc(-c2cccn3nc(NCCc4ccccn4)nc23)cc1 [Example 406, [8-(4-Methanesulfonyl-phenyl)-[1,2,4]triazolo[1,5-a]pyridin-2-yl]-(2-pyridin-2-yl-ethyl)-amine] | – | – | 10000 | 10000
10 | CS(=O)(=O)c1ccc(-c2cccn3nc(NCCc4cccnc4)nc23)cc1 [Example 407, [8-(4-Methanesulfonyl-phenyl)-[1,2,4]triazolo[1,5-a]pyridin-2-yl]-(2-pyridin-3-yl-ethyl)-amine] | – | – | 10000 | 1980
11 | CS(=O)(=O)c1ccc(-c2cccn3nc(NCc4cccnc4)nc23)cc1 [Example 408, [8-(4-Methanesulfonyl-phenyl)-[1,2,4]triazolo[1,5-a]pyridin-2-yl]-pyridin-3-ylmethyl-amine] | – | – | 10000 | 2760
12 | CS(=O)(=O)c1ccc(-c2cccn3nc(NCc4ccccn4)nc23)cc1 [Example 409, [8-(4-Methanesulfonyl-phenyl)-[1,2,4]triazolo[1,5-a]pyridin-2-yl]-pyridin-2-ylmethyl-amine] | – | – | 10000 | 6500
13 | CCN1CCP(=O)(c2ccc(Nc3nc4c(-c5ccc(S(C)(=O)=O)cc5)cccn4n3)cc2)CC1 [Example 411, N-[4-(1-ethyl-4-oxido-1,4-azaphosphinan-4-yl)phenyl]-8-[4-(methylsulfonyl)phenyl][1,2,4]triazolo[1,5-a]pyridin-2-amine] | – | – | 1860 | 1.62
